According to PMC5739799 (Oncotarget, 2017):
Where two headings read alike, the source gives them in different places.

Columns and labels:
H129 hepatoma = assay: Syngenic orthotopic H129 hepatoma mouse model, survival; type: in vivo, C3H/HeN mice; settings: regorafenib 10 mg/kg/day oral, start 4–5 days after implantation, vehicle 27 days
Excerpt: C3H/HeN mice aged 10–12 weeks with an average weight of 25 g were used for this model and were obtained from Charles River (Sulzfeld, Germany). Experiments were initiated after an acclimatizing period of at least 8 days. Syngenic murine H129 hepatoma cells (obtained from Dr. V. Schmitz, University of Bonn, Germany) were cultivated in RPMI medium, containing 10% fetal calf serum (FCS) and 5% glutamine. Cells were harvested in a subconfluent state (70–80%), prepared for injection of 5×10^4 cells/20 μL in growth factor-free Matrigel, and transplanted in the left upper liver lobe. Animals with surgical failures were marked and excluded from the experiment. Treatment was initiated 4–5 days after transplantation. One set of mice received regorafenib 10 mg/kg once daily, vehicle solution once daily, or no treatment (n=8 per treatment group). […] Treatments were given orally via gavage. The vehicle solution contained 10% Transcutol, 10% Cremophor, and 80% 0.9% NaCl. Animals were weighed twice a week and monitored daily for behavior and wound healing. […] Due to ascites formation in the peritoneum (a symptom of the disease), body weight was not used as part of the assessment. Animals were dissected to assess the cause of death unless they had died in their cage overnight.
(§1) In the syngenic orthotopic H129 model, differences in survival times between groups were analyzed for significance using log-rank tests. Analysis of tumor volumes of the HCC-PDX models was performed with log2-transformed values on defined days of measurement based on the assumption of their log-normal distribution. […] All respective statistical test results were derived from a common linear model that allows for individual variances in the different groups. The adjustment for multiple testing was carried out using Šidák correction at a significance level of 0.05. […] Bead-based western data were analyzed (described in [15]) using the MEV 4.8.1 software package. […]

HCC-PDX model 10 = assay: Patient-derived HCC xenograft model 10, tumor growth; type: in vivo, BALB/c nude mice
Procedure: (§2) The PDX studies were carried out by WuXi AppTec (Shanghai, China). HCC-PDX models were originally established from surgically resected tumor tissue that was implanted in 6–8-week-old female BALB/c nude mice. Animal studies were performed according to the guidelines approved by the Institutional Animal Care and Use Committee of Wuxi AppTec, which follow the guidance of the Association for the Assessment and Accreditation of Laboratory Animal Care. Animals were routinely monitored for their health status and their body weights. Treatment was suspended and/or doses reduced at body weight losses >10%. Animals were euthanized when the tumor size exceeded 2000 mm^3. Pieces from tumor xenografts (∼30 mm^3) from passages 4–8 (ST1) were implanted subcutaneously at the right flank, and tumors were grown to an average size of about 150–200 mm^3. […] Tumor size was measured twice weekly using caliper measurements. Tumor volume (mm^3) was calculated using the formula 0.5 a × b^2, where a and b are the long and short diameters of the tumor, respectively. TGI was assessed either by calculating the ratio of the mean tumor volumes of treated and control groups or by determination of the RTV, which relates tumor volumes at any given day of treatment to the volume at the first treatment day.
(§3) In the syngenic orthotopic H129 model, differences in survival times between groups were analyzed for significance using log-rank tests. Analysis of tumor volumes of the HCC-PDX models was performed with log2-transformed values on defined days of measurement based on the assumption of their log-normal distribution. […] All respective statistical test results were derived from a common linear model that allows for individual variances in the different groups. The adjustment for multiple testing was carried out using Šidák correction at a significance level of 0.05. Back transformation of the mean difference of log2-transformed tumor volumes led to the ratios of the compared groups, whereby ratios of 1 reflect no difference in tumor volumes and ratios below or above 1 reflect smaller or larger tumor volumes, respectively, of the respective second group. The analyses of RTV were carried out in a similar fashion without the log2 transformation of values. Bead-based western data were analyzed (described in [15]) using the MEV 4.8.1 software package. A p-value <0.05 was regarded as significant. All statistical analyses were performed with SAS® 9.4 [34].

HCC-PDX model 19 = assay: Patient-derived HCC xenograft model 19, tumor growth; type: in vivo, BALB/c nude mice
Procedure: as §2, §3

HCC-PDX model 20 = assay: Patient-derived HCC xenograft model 20, tumor growth; type: in vivo, BALB/c nude mice
Procedure: as §2, §3

HCC-PDX model 61 = assay: Patient-derived HCC xenograft model 61, tumor growth; type: in vivo, BALB/c nude mice
Procedure: as §2, §3

HCC-PDX model 101 = assay: Patient-derived HCC xenograft model 101, tumor growth; type: in vivo, BALB/c nude mice
Procedure: as §2, §3

HCC-PDX model 141 = assay: Patient-derived HCC xenograft model 141, tumor growth; type: in vivo, BALB/c nude mice
Procedure: as §2, §3

HCC-PDX model 159 = assay: Patient-derived HCC xenograft model 159, tumor growth; type: in vivo, BALB/c nude mice
Procedure: as §2, §3

HCC-PDX model 217 = assay: Patient-derived HCC xenograft model 217, tumor growth; type: in vivo, BALB/c nude mice
Procedure: as §2, §3

[1] = system: 10 patient-derived HCC xenograft (HCC-PDX) models; assay: Panel of 10 HCC-PDX models, overall response and tolerability; type: in vivo, BALB/c nude mice; settings: 10 HCC-PDX models; regorafenib 10, sorafenib 30 mg/kg/day oral
Procedure: as §2, §1

[2] = Steady-state plasma pharmacokinetics after oral dosing for 5 days; type: in vivo, BALB/c nu/nu mice
Procedure: Pharmacokinetic studies were performed in 6–8-week-old female BALB/c nu/nu mice (Charles River, Sulzfeld, Germany). […] Parent compounds and metabolites M-2 and M-5 were analyzed in plasma samples using validated bioanalytical liquid chromatography-tandem mass spectrometry (LC-MS/MS) methods according to an experimental protocol described earlier. PK parameters, namely the AUC(0–24)ss and Cmax, were calculated from plasma concentrations using a non-compartmental analysis.

[3] = day 28, R 10 / S 30 mg/kg/day oral starting dose
[4] = plasma analyte after oral regorafenib 10 mg/kg/day for 5 days

With `CNC(=O)c1cc(Oc2ccc(NC(=O)Nc3ccc(Cl)c(C(F)(F)F)c3)c(F)c2)ccn1` [Regorafenib] the “Median survival, days (95% CI)” value (H129 hepatoma) was 36 (31, 38) days, the “Median survival, days (95% CI)” value (H129 hepatoma; listed as regorafenib) was 36 days and the “RTV Differences of least square-means, regorafenib vs sorafenib” value (from here on “RTV Differences … vs sorafenib”) (HCC-PDX model 10; RTV analysis day R 40, S 30) was -99,327. The “log TV Ratio, compound vs vehicle (T/C)” value (HCC-PDX model 10; day 12) was 0.15, the “log TV Ratio, regorafenib vs sorafenib” value (HCC-PDX model 10; day 12) was 0.53 and the “Mean TV” value (HCC-PDX model 10; day 12, R 10 / S 30 mg/kg/day oral) was 332.11 mm^3. For the same molecule, the “log TV Differences of least square-means, compound vs vehicle” value (shortened to “log TV Differences … vs vehicle”) (HCC-PDX model 10; day 12, log2-transformed TV) was -27,077, the “log TV Differences of least square-means, regorafenib vs sorafenib” value (shortened to “log TV Differences … vs sorafenib”) (HCC-PDX model 10; day 12, log2-transformed TV) was -0.9111 and the RTV (HCC-PDX model 10; end of study (RTV analysis day R 40, S 30)) was 9.15. The “log TV Ratio, compound vs vehicle (T/C)” value (HCC-PDX model 19; day 28) was 0.66, the “log TV Ratio, regorafenib vs sorafenib” value (HCC-PDX model 19; day 28) was 1.06 and the “Mean TV” value (HCC-PDX model 19; [3]) was 542.38 mm^3. For the same molecule, the “log TV Differences … vs vehicle” value (HCC-PDX model 19; day 28, log2-transformed TV) was -0.6083, the “log TV Differences … vs sorafenib” value (HCC-PDX model 19; day 28, log2-transformed TV) was 0.08047 and the RTV Differences of least square-means, compound vs vehicle (HCC-PDX model 19; day 42) was -24.1. The “RTV Differences … vs sorafenib” value (HCC-PDX model 19; day 42) was 0.5174, the RTV (HCC-PDX model 19; end of study, day 42) was 5.21 and the “log TV Ratio, compound vs vehicle (T/C)” value (HCC-PDX model 20; day 21) was 0.73. The “log TV Ratio, regorafenib vs sorafenib” value (HCC-PDX model 20; day 21) was 0.93, the “Mean TV” value (HCC-PDX model 20; day 21, R 10 / S 30 mg/kg/day oral) was 742.98 mm^3 and the “log TV Differences … vs vehicle” value (HCC-PDX model 20; day 21, log2-transformed TV) was -0.4621. For the same molecule, the “log TV Differences … vs sorafenib” value (HCC-PDX model 20; day 21, log2-transformed TV) was -0.1048, the RTV Differences of least square-means, compound vs vehicle (HCC-PDX model 20; day 42) was -23.2 and the RTV Differences of least square-means, regorafenib vs sorafenib (HCC-PDX model 20; day 42) was -11. For the same molecule, the RTV (HCC-PDX model 20; end of study, day 42) was 9.46, the RTV Differences of least square-means, regorafenib vs sorafenib (HCC-PDX model 61; RTV analysis day R 42, S 36) was -19.5 and the “log TV Ratio, compound vs vehicle (T/C)” value (HCC-PDX model 61; day 25) was 0.26. The “log TV Ratio, regorafenib vs sorafenib” value (HCC-PDX model 61; day 25) was 0.72, the “Mean TV” value (HCC-PDX model 61; day 25, R 10 / S 30 mg/kg/day oral) was 331.96 mm^3 and the “log TV Differences … vs sorafenib” value (HCC-PDX model 61; day 25, log2-transformed TV) was -0.4771. The RTV (HCC-PDX model 61; end of study (RTV analysis day R 42, S 36)) was 5.43, the “log TV Ratio, compound vs vehicle (T/C)” value (HCC-PDX model 101; day 28) was 0.19 and the “log TV Ratio, regorafenib vs sorafenib” value (HCC-PDX model 101; day 28) was 0.41. The “Mean TV” value (HCC-PDX model 101; [3]) was 177.21 mm^3, the RTV (HCC-PDX model 101; end of study, day 42) was 2.06 and the “log TV Ratio, compound vs vehicle (T/C)” value (HCC-PDX model 141; day 28) was 0.10. For the same molecule, the “log TV Ratio, regorafenib vs sorafenib” value (HCC-PDX model 141; day 28) was 0.76, the “Mean TV” value (HCC-PDX model 141; [3]) was 89.74 mm^3 and the “log TV Differences … vs sorafenib” value (HCC-PDX model 141; day 28, log2-transformed TV) was -0.3980. For the same molecule, the RTV (HCC-PDX model 141; end of study, day 42) was 1.04, the “log TV Ratio, compound vs vehicle (T/C)” value (HCC-PDX model 159; day 28) was 0.59 and the “log TV Ratio, regorafenib vs sorafenib” value (HCC-PDX model 159; day 28) was 0.78. For the same molecule, the “Mean TV” value (HCC-PDX model 159; [3]) was 864.43 mm^3, the “log TV Differences … vs vehicle” value (HCC-PDX model 159; day 28, log2-transformed TV) was -0.7546 and the “log TV Differences … vs sorafenib” value (HCC-PDX model 159; day 28, log2-transformed TV) was -0.3604. The “RTV Differences … vs sorafenib” value (HCC-PDX model 159; day 35) was -0.6894, the RTV (HCC-PDX model 159; end of study, day 35) was 9.04 and the “RTV Differences … vs sorafenib” value (HCC-PDX model 217; RTV analysis day R 24, S 20) was -14,902. For the same molecule, the “log TV Ratio, compound vs vehicle (T/C)” value (HCC-PDX model 217; day 13) was 0.45, the “log TV Ratio, regorafenib vs sorafenib” value (HCC-PDX model 217; day 13) was 0.92 and the “Mean TV” value (HCC-PDX model 217; day 13, R 10 / S 30 mg/kg/day oral) was 932.43 mm^3. For the same molecule, the “log TV Differences … vs vehicle” value (HCC-PDX model 217; day 13, log2-transformed TV) was -11,395, the “log TV Differences … vs sorafenib” value (HCC-PDX model 217; day 13, log2-transformed TV) was -0.1276 and the RTV (HCC-PDX model 217; end of study (RTV analysis day R 24, S 20)) was 12.77. The “Models with significant tumor growth inhibition” value [1] was 8/10, the “AUC(0–24)ss (percent of total)” value ([2]; after oral regorafenib 10 mg/kg/day for 5 days, total = molar sum of regorafenib, M-2, M-5) was 90% of total and the AUC(0-t) ([2]; female, BALB/c nu/nu, mouse, plasma analyte after oral regorafenib 10 mg/kg/day for 5 days, read-out: AUC(0–24)ss) was 93100 ng·h/mL. For the same molecule, the Cmax ([2]; female, BALB/c nu/nu, mouse, plasma analyte after oral regorafenib 10 mg/kg/day for 5 days, read-out: Cmax) was 10700 ng/mL, the “AUC(0–24)ss” value [2, 4] was 193 µM·h and the Cmax [2, 4] was 22.2 µM. The “Cumulated maximum concentration (Cmax)” value ([2]; regorafenib 10 mg/kg once daily for 5 days, parent plus metabolites) was 24.5 µM.
